Results reported in US4328235A, “Suppressing pain with benzothiazol-2(3H)-ones” (Boehringer Ingelheim GmbH, priority 1979, dated 1982).
Like-named read-outs stand apart in the source and are kept apart here.

Columns and labels:
[1] = literature: W. Nimmich, Pharmazie, 19, (4), 281 (1964); cited from earlier work
[2] = tested on: Sensitivity of the Mouse in the Hot Plate Test; test: Hot plate test (sensitivity of the mouse, increase of reaction time); assay type: in vivo; conditions: po, read-out: ED100 (dose which increased the time of reaction by 100%)
Protocol: The test substances were administered as trituration in 1% methyl cellulose (0.1 ml/10 g of mouse) by means of an oesophageal tube.
Before treatment with the test substances, the animals were twice put on the hot plate at an interval of 30 minutes, whereby their individual times of reaction were measured. After treatment with a test substance, the times of reaction of the animals were again measured in an interval of 30 minutes.

[3] = tested on: Pain of Inflammation on the Back Paw of the Rat; test: Randall-Selitto test (pain of inflammation, yeast oedema, back paw of the rat); assay type: in vivo; conditions: po, 0.75 h, read-out: ED50 (dose which increased the pain threshold by 50%)
Protocol: The activity against the pain caused by inflammation was tested according to the method of RANDALL-SELITTO [Arch. Int. […] After a further 45 minutes the pain threshold was determined in the animals treated with the test compound and in the control animals treated only with the vehicle.

[4] = tested on: body temperature of Chbb:THOM-rats; test: Antipyretic activity (rectal body temperature of rats); assay type: in vivo, rat; conditions: for ED (-1.5 degC): Rattus norvegicus, po, read-out: ED-1.5° C. (dose which decreases the body temperature by 1.5° C.)
Protocol: The test substances were administered as a trituration in a 1% methyl cellulose in portions of 1.0 ml/100 g of animal using an oesophageal tube.
From the values for the average maximum decline of temperature, which were gained after the administration of the different doses of the test substances, and after a linear regression analysis according to LINDER, an ED-1.5° C. was calculated with the confidence limits according to FIELLER as the dose which decreases the body temperature by 1.5° C.

[5] = tested on: methemoglobin; test: Determination of the level of methemoglobin in the cat; assay type: in vivo; conditions: oesophageal tube
Protocol: The test substances were administered to cats of both sexes having an average body weight of 2.5 kg, as a trituration in 1% methyl cellulose using an oesophageal tube (2 ml/kg; the oesophageal tube was cleared in situ by aqua bidestillata). After a single application blood-tests were taken by heart-punctuation at different times, that is, at 3 hours, 5 hours, 24 hours, and 48 hours after administration. The photometric registration of the spectrum of hemoglobin as well as the determination of the content of hemoglobin in comparison to controls were effected according to the method of LEMBERG and LEGGE [Hematin Compounds and Bile Pigments, Interscience Publishers, New York (1949)].

[6] = Acute toxicity in mice; conditions: mouse, in vivo, po; Chbb-NMRI (SPF)-mice of both sexes, oesophageal tube, deaths within 14 days
Protocol: The acute toxicity was determined in Chbb-NMRI (SPF)-mice of both sexes, having an average body weight of 20 grams. The test compounds were administered as a trituration in 1% methyl cellulose (0.5 ml/10 g of animal) by means of an oesophageal tube. The calculation of the LD50 values was effected according to the method of LITCHFIELD and WILCOXON [J. Pharmacol. Exp. Ther., 96. 99 (1949)], based on the percentage of animals which died within 14 days after administration of different doses.

[7] = 50 mg/kg, 3 hours after administration
[8] = 50 mg/kg, 5 hours after administration
[9] = 50 mg/kg, 24 hours after administration
[10] = 100 mg/kg, 3 hours after administration
[11] = 100 mg/kg, 5 hours after administration
[12] = 100 mg/kg, 24 hours after administration
[13] = 200 mg/kg, 3 hours after administration
[14] = 200 mg/kg, 5 hours after administration
[15] = 200 mg/kg, 24 hours after administration
[16] = male Chbb:NMRI (SPF)-mice, oesophageal tube, hot plate 52° C.
[17] = male Chbb:THOM-rats, oesophageal tube, 45 minutes after administration
[18] = Chbb:THOM-rats, oesophageal tube

For `O=c1[nH]c2ccccc2s1` [Example 2, Benzothiazol-2(3H)-one], the “Antimicrobial and fungistatic activity” value [1] is listed as “antimicrobial and fungistatic acitivity”.

Work on `CCOc1ccc(NC(C)=O)cc1` [D, Phenacetin, reference compound] yielded an ED100 [2] of 328 mg/kg, an ED50 [3] of 274 mg/kg and an ED (-1.5 degC) [4] of 34.4 mg/kg. The “Antipyretic activity (in words)” value ([4]; rat, in vivo) was “an antipyretic activity”, the “Average value of methemoglobin” value ([5]; 25 mg/kg, 3 hours after administration) was 1.9 % of total hemoglobin and the “Average value of methemoglobin” value ([5]; 25 mg/kg, 5 hours after administration) was 0.4 % of total hemoglobin. For the same compound, the “Average value of methemoglobin” value [5, 7] was 19.6 % of total hemoglobin, the “Average value of methemoglobin” value [5, 8] was 9.8 % of total hemoglobin and the “Average value of methemoglobin” value [5, 9] was 0.5 % of total hemoglobin. The “Average value of methemoglobin” value [5, 10] was 32.0 % of total hemoglobin, the “Average value of methemoglobin” value [5, 11] was 35.8 % of total hemoglobin and the “Average value of methemoglobin” value [5, 12] was 0.5 % of total hemoglobin. The “Average value of methemoglobin” value [5, 13] was 36.0 % of total hemoglobin, the “Average value of methemoglobin” value [5, 14] was 46.6 % of total hemoglobin and the “Average value of methemoglobin” value [5, 15] was 15.4 % of total hemoglobin. The “Average value of methemoglobin” value ([5]; 200 mg/kg, 48 hours after administration) was 1.1 % of total hemoglobin and the LD50 at 336 h [6] was 1460 mg/kg.

Compound `CCOc1ccc2[nH]c(=O)sc2c1` [A, 6-Ethoxy-benzothiazol-2(3H)-one] has an ED100 [2, 16] of 154 mg/kg, an ED50 [3, 17] of 64.3 mg/kg and an ED (-1.5 degC) [4, 18] of 84.3 mg/kg. The “Average value of methemoglobin” value [5, 7] was 0.3 % of total hemoglobin, the “Average value of methemoglobin” value [5, 8] was 0.5 % of total hemoglobin and the “Average value of methemoglobin” value [5, 9] was 1.1 % of total hemoglobin. The “Average value of methemoglobin” value [5, 10] was 0.4 % of total hemoglobin, the “Average value of methemoglobin” value [5, 11] was 0.1 % of total hemoglobin and the “Average value of methemoglobin” value [5, 12] was 0.3 % of total hemoglobin. The “Average value of methemoglobin” value [5, 13] was 1.0 % of total hemoglobin, the “Average value of methemoglobin” value [5, 14] was 0.4 % of total hemoglobin and the “Average value of methemoglobin” value [5, 15] was 0.5 % of total hemoglobin. For the same compound, the LD50 at 336 h [6] was 1200 mg/kg.

In the case of `COc1ccc2nc(O)sc2c1` [B, 6-Methoxy-benzothiazol-2(3H)-one], the ED100 [2, 16] is reported as 122 mg/kg, the ED50 [3, 17] is reported as 142 mg/kg and the ED (-1.5 degC) [4, 18] is reported as 66.8 mg/kg. For the same compound, the “Average value of methemoglobin” value [5, 10] was 4.6 % of total hemoglobin, the “Average value of methemoglobin” value [5, 11] was 3.5 % of total hemoglobin and the “Average value of methemoglobin” value [5, 12] was 0.0 % of total hemoglobin. For the same compound, the “Average value of methemoglobin” value [5, 13] was 8.1 % of total hemoglobin, the “Average value of methemoglobin” value [5, 14] was 11.7 % of total hemoglobin and the “Average value of methemoglobin” value [5, 15] was 0.0 % of total hemoglobin. The LD50 at 336 h [6] was 1280 mg/kg.

`Cc1ccc2[nH]c(=O)sc2c1` [C, 6-Methyl-benzothiazol-2(3H)-one] gave an ED100 [2, 16] of 144 mg/kg, an ED50 [3, 17] of 54.4 mg/kg and an ED (-1.5 degC) [4, 18] of 30.9 mg/kg. The “Average value of methemoglobin” value [5, 10] was 4.0 % of total hemoglobin, the “Average value of methemoglobin” value [5, 11] was 2.4 % of total hemoglobin and the “Average value of methemoglobin” value [5, 12] was 0.1 % of total hemoglobin. The “Average value of methemoglobin” value [5, 13] was 13.6 % of total hemoglobin, the “Average value of methemoglobin” value [5, 14] was 13.7 % of total hemoglobin and the “Average value of methemoglobin” value [5, 15] was 0.4 % of total hemoglobin. It also gave an LD50 at 336 h [6] of 2160 mg/kg.
